Where two headings read alike, the source gives them in different places.
Key:
[1] = system: Klebsiella pneumoniae expressing VIM-1 (IHMA599644); assay: Antibiotic potentiation activity: synergistic concentration (MITC95) with imipenem, OD600 growth; format: cell-based; details: for Klebsiella pneumoniae expressing VIM-1 (IHMA 599644) MITC95: concentration giving 95% inhibition of bacterial growth; for Klebsiella pneumoniae MITC95: Klebsiella pneumoniae expressing VIM-1 (IHMA599644), 95% growth inhibition
Method in brief: (§1)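 Imipenem (4 μg/ml final; 1 μg/ml as an option) was combined with compound against isolates diluted 1:100 from saline suspensions into 1.1× CAMHB. Growth was assessed by absorbance at 22–24 h, 35 °C.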

[2] = system: Serratia marcescens expressing IMP-1 (CL5741); assay: as above; format: cell-based; details: for Serratia marcescens expressing IMP-1 (CL5741) MITC95: concentration giving 95% inhibition of bacterial growth; for Serratia marcescens MITC95: Serratia marcescens expressing IMP-1 (CL5741), 95% growth inhibition
Method in brief: as §1

[3] = system: Escherichia coli expressing NDM-1 (CLB30005); assay: as above; format: cell-based; details: for Escherichia coli expressing NDM-1 (CLB 30005) MITC95: concentration giving 95% inhibition of bacterial growth; for Escherichia coli MITC95: Escherichia coli expressing NDM-1 (CLB30005), 95% growth inhibition
Method in brief: as §1

[4] = target: VIM-1 (Pseudomonas aeruginosa (strain ATCC 15692 / DSM 22644 / CIP 104116 / JCM 14847 / LMG 12228 / 1C / PRS 101 / PAO1), UniProt A0A0F7KYQ8); assay: Enzyme activity: determination of IC50, fluorescence assay with CCF2-FA substrate (VIM-1); format: biochemical
[5] = target: NDM-1 (Klebsiella pneumoniae, UniProt C7C422); assay: biochemical; format: biochemical; details: read-out: NDM-1 IC50
[6] = target: IMP-1 (Serratia marcescens, UniProt P52699); assay: biochemical; format: biochemical; details: read-out: IMP-1 IC50
[7] = fluorescence assay with CCF2-FA substrate, read-out: VIM-1 IC50
[8] = fluorescence assay with CCF2-FA substrate
[9] = VIM-1 enzyme, CCF2-FA fluorescence assay, read-out: VIM-1 IC50
[10] = NDM-1 enzyme, CCF2-FA fluorescence assay
[11] = IMP-1 enzyme, CCF2-FA fluorescence assay
[12] = VIM-1 IC50, fluorescence assay with CCF2-FA substrate

Sequence of NDM-1 (C7C422 whole entry, looked up, species assumed): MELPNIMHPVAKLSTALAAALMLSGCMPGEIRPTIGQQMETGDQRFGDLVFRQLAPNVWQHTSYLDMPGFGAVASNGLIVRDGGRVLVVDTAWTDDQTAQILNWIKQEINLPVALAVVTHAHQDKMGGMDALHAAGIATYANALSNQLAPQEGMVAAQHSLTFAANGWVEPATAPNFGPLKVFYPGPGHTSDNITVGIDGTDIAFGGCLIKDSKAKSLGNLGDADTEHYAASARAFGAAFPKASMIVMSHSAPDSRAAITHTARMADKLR
Sequence of IMP-1 (P52699 whole entry, looked up): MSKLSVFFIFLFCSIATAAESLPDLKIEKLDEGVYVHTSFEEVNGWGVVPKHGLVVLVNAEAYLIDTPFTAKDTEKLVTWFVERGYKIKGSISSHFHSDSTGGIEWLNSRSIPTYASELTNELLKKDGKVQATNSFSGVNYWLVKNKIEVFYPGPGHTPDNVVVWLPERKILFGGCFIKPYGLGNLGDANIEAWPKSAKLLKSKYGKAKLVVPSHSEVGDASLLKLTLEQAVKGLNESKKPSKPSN

SMILES | Klebsiella pneumoniae expressing VIM-1 (IHMA 599644) MITC95 [1] [µM] | Serratia marcescens expressing IMP-1 (CL5741) MITC95 [2] [µM] | Escherichia coli expressing NDM-1 (CLB 30005) MITC95 [3] [µM] | IC50 [4, 7] [nM] | IC50 [5, 8] [nM] | IC50 [6, 8] [nM] | Klebsiella pneumoniae MITC95 [1] [µM] | Serratia marcescens MITC95 [2] [µM] | Escherichia coli MITC95 [3] [µM] | IC50 [4, 9] [nM] | IC50 [5, 10] [nM] | IC50 [6, 11] [nM] | IC50 [4, 12] [nM]
NS(=O)(=O)c1cccc(-c2ccnnc2)c1-c1nn[nH]n1 [Example 47, 3-pyridazin-4-yl-2-(2H-tetrazol-5-yl)benzenesulfonamide] | >200 | 50 | 0.7813 | 5360 | 345 | 4160 |  |  |  |  |  |  | 
NS(=O)(=O)c1cccc(-c2cscn2)c1-c1nn[nH]n1 [Example 45, 2-(2H-tetrazol-5-yl)-3-(1,3-thiazol-4-yl)benzenesulfonamide] | 50 | 25 | 0.7813 | 496 | 85 | 1210 |  |  |  |  |  |  | 
NS(=O)(=O)c1cccc(-c2ccc3c(c2)CCCO3)c1-c1nn[nH]n1 [Example 85, 3-(3,4-dihydro-2H-chromen-6-yl)-2-(2H-tetrazol-5-yl)benzenesulfonamide] | 150 | 37.5 | 2.344 | 28 | 1.81 | 94.6 |  |  |  |  |  |  | 
NS(=O)(=O)c1cccc(-c2cccnc2)c1-c1nn[nH]n1 [Example 19, 3-pyridin-3-yl-2-(2H-tetrazol-5-yl)benzenesulfonamide] | 50 | 50 | 0.3906 | 269 | 24.5 | 1780 |  |  |  |  |  |  | 
NS(=O)(=O)c1nccc(-c2ccc3cn[nH]c3c2)c1-c1nn[nH]n1 [Example 203, 4-(1H-indazol-6-yl)-3-(2H-tetrazol-5-yl)pyridine-2-sulfonamide] | 9.375 | 50 | 0.3906 | 43.6 | 18.6 | 1430 |  |  |  |  |  |  | 
CS(=O)(=O)CCn1cc(-c2cccc(S(N)(=O)=O)c2-c2nn[nH]n2)cn1 [Example 54, 3-{1-[2-(methylsulfonyl)ethyl]-1H-pyrazol-4-yl}-2-(2H-tetrazol-5-yl)benzenesulfonamide] | >200 | 18.75 | 2.344 | 937 | 42.3 | 205 |  |  |  |  |  |  | 
NS(=O)(=O)c1cccc(C(F)(F)F)c1-c1nnn[nH]1 [Example 256, 2-(1H-Tetrazol-5-yl)-3-(trifluoromethyl)benzenesulfonamide] |  |  |  |  |  |  | >200 | 100 | 0.7813 | 8440 | 230 | 6260 | 
Cc1ccccc1-c1ccnc(S(N)(=O)=O)c1-c1nn[nH]n1 [Example 210, 3-(2H-tetrazol-5-yl)-4-(o-tolyl)pyridine-2-sulfonamide] | 15.63 | 25 | 0.5208 | 25.5 | 11.8 | 421 |  |  |  |  |  |  | 
COC(=O)c1ccc(-c2ccnc(S(N)(=O)=O)c2-c2nnn[nH]2)cc1 [Example 182, Methyl 4-(2-sulfamoyl-3-(1H-tetrazol-5-yl)pyridin-4-yl)benzoate] | 200 | 100 | 4.688 |  | 32.4 | 348 |  |  |  |  |  |  | 91.4
NS(=O)(=O)c1cccc(-c2cncc(F)c2)c1-c1nn[nH]n1 [Example 83, 3-(5-fluoropyridin-3-yl)-2-(2H-tetrazol-5-yl)benzenesulfonamide] | 25 | 50 | 0.3906 |  | 5.97 | 520 |  |  |  |  |  |  | 43.6
NS(=O)(=O)c1cccc(-c2cnn3ncccc23)c1-c1nn[nH]n1 [Example 105, 3-pyrazolo[1,5-b]pyridazin-3-yl-2-(2H-tetrazol-5-yl)benzenesulfonamide] | 18.75 | 31.25 | 0.9766 | 70.4 | 14.3 | 374 |  |  |  |  |  |  | 
Cc1ccc(-c2cc(-c3cccc(C(N)=O)c3)cc(S(N)(=O)=O)c2-c2nn[nH]n2)cc1 [Example 295, 4″-methyl-5′-sulfamoyl-4′-(2H-tetrazol-5-yl)-[1,1′:3′,1″-terphenyl]-3-carboxamide] |  |  |  |  |  |  | >200 | 1.563 | 1.953 | 126 | 0.637 | 16.1 | 
NS(=O)(=O)c1nccc(-c2ccc3c(c2)OCC(=O)N3)c1-c1nn[nH]n1 [Example 205, 4-(3-oxo-3,4-dihydro-2H-benzo[b][1,4]oxazin-7-yl)-3-(2H-tetrazol-5-yl)pyridine-2-sulfonamide] | 9.375 | 6.25 | 0.3906 | 24.1 | 14.3 | 113 |  |  |  |  |  |  | 
NS(=O)(=O)c1nccc(-c2ccc(C3CCOCC3)cc2)c1-c1nnn[nH]1 [Example 187, 4-(4-(Tetrahydro-2H-pyran-4-yl)phenyl)-3-(1H-tetrazol-5-yl)pyridine-2-sulfonamide] | >200 | 25 | 15.63 | 150 | 2.81 | 28.9 |  |  |  |  |  |  | 
COc1ccc(S(N)(=O)=O)c(-c2nn[nH]n2)c1 [Example 253, 4-Methoxy-2-(2H-tetrazol-5-yl)benzenesulfonamide] |  |  |  |  |  |  | >200 | >200 | 3.125 | 170000 | 440 | 46300 | 
NS(=O)(=O)c1ccc(-c2cccc(S(N)(=O)=O)c2-c2nn[nH]n2)cc1 [Example 61, 2-(2H-tetrazol-5-yl)biphenyl-3,4′-disulfonamide] | 25 | 6.25 | 0.5859 |  | 6.34 | 58 |  |  |  |  |  |  | 62
NS(=O)(=O)c1nccc(-c2ccc3c(c2)CC(=O)N3)c1-c1nn[nH]n1 [Example 201, 4-(2-oxoindolin-5-yl)-3-(2H-tetrazol-5-yl)pyridine-2-sulfonamide] | 18.75 | 50 | 0.7813 |  | 66.2 | 1450 |  |  |  |  |  |  | 67.1
NS(=O)(=O)c1cccc(-c2cncs2)c1-c1nn[nH]n1 [Example 44, 2-(2H-tetrazol-5-yl)-3-(1,3-thiazol-5-yl)benzenesulfonamide] | 37.5 | 12.5 | 0.3906 | 294 | 34.6 | 293 |  |  |  |  |  |  | 

From patent US9708336B2, “Metallo-beta-lactamase inhibitors” (priority 2014, dated 2017)
